We go through eight molecules from US20260327264A1, “PEPTIDE INHIBITORS OF INTERLEUKIN-23 RECEPTOR” (Zealand Pharma A/S, priority 2023, published 2026).

Data set [1] deals with T1, human IL-23R (Homo sapiens, UniProt Q5VWK5).
T1 construct: Nanoluc luciferase (Nluc); secretion signal encoded by the plasmid (not specified); expressed in transfected cells; crude membranes used in the assay
T1 sequence (Q5VWK5 22-629): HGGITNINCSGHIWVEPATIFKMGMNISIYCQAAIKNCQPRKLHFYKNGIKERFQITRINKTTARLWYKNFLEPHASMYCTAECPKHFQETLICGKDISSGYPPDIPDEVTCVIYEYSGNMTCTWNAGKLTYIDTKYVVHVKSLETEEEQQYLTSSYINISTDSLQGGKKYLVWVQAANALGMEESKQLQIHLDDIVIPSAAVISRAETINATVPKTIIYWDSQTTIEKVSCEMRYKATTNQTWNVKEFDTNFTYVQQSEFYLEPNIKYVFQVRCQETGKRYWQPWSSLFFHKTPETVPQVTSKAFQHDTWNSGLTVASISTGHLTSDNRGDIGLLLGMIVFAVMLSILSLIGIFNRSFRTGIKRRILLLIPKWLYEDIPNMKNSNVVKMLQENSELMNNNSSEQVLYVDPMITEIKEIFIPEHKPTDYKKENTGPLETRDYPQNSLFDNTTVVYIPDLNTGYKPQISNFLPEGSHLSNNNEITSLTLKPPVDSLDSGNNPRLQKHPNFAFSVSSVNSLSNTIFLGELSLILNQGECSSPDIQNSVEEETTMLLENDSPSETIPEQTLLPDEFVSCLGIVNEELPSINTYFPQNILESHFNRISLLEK
Nature of the data set: Binding assay: displacement of fluorophore (TAMRA)-labelled reference compound from human IL-23R (BRET, Nluc-IL23R fusion protein membranes). As to conditions: for Emax: read-out: % displacement (hIL-23R binding). For orientation: Bioluminescence resonance energy transfer reports proximity on the nanometre scale.

For data set [2], the system named is IL-23 mediated STAT3 signalling (DB cells). Nature of the data set: Functional inhibition of IL-23 mediated STAT3 signalling (phospho-STAT3 Tyr705) in DB cells. Type of data set: cell-based, human. As to conditions: for hIL-23 (pSTAT3) antagonist % inhibition: Table 3-2, maximal inhibitory response, EC80 of hIL-23. In short, it runs like this:
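Phospho-STAT3 in lysed DB cells quantified by MSD kit after 90 min exposure to EC80 human IL-23, following 15 min compound pretreatment (37° C, 5% CO2). IC50 and maximal inhibition derived from curves normalized between IL-23-only and buffer-only controls.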

A short description of data set [3]: Peptide stability in simulated gastric fluid (SGF). Type of data set: in vitro ADME. As to conditions: pig, pH 1.2, pepsin, 37° C. The procedure: SGF and SIF were prepared based on the United States Pharmacopeia specifications (Test Solutions, United States Pharmacopeia 35, NF 30, 2012). SGF was prepared by dissolving sodium chloride (0.2 g) in 50 mL of water. A volume of 0.7 mL of 10 M HCl was added to adjust the pH of the solution to 1.2 and the volume made up to 100 mL with water. 64 mg porcine pepsin (P7125, Sigma Aldrich) was gently dissolved into 20 mL preheated (37° C.) solution (3.2 g/L) immediately prior to the incubation. SIF was prepared by dissolving monobasic potassium phosphate (0.68 g) in 50 mL of water and adjusting the pH to 6.8 with 1 M NaOH. The volume was subsequently made up to 100 mL with water. 200 mg porcine pancreatin (P1625, Sigma Aldrich) was gently dissolved into 20 mL preheated (37° C.) solution (10 g/L) immediately prior to the incubation.
To initiate the incubations, 20 μL of peptide stock solution in 50% v/v isopropanol was deposited at the bottom of a well plate and 580 μL matrix solution was added to give a final substrate concentration of 10 μM. The incubation was performed at 37° C. with gentle shaking. 70 μL aliquots were removed at 0, 1 and 4 hours and quenched into 210 μL ice-cold precipitant solution (95% v/v acetonitrile with 0.1% v/v formic acid). After the last timepoint, the sampling plate was mixed for 10 min on a shaking table and centrifuged 10 min at 2200 g. 70 μL resulting supernatant was diluted with 150 μL water, mixed and centrifugated before analysis by liquid chromatography high resolution mass spectrometry. The zero sample was reinjected after the 4-hour sample to confirm that no drift in instrument sensitivity had occurred during the run. Percent remaining at each timepoint was calculated relative to timepoint zero based on absolute peak areas.
Compounds with a SGF stability (after 4 h) above 70% are considered highly SGF stable. Compounds with a SGF stability (after 4 h) between 30-70% (including 30% and 70%) are considered moderately SGF stable. Compounds with a SGF stability (after 4 h) below 30% are considered SGF unstable. SGF stability values above 100% are due to assay uncertainty and indicate the compound has not degraded.

Where [4] appears, read: EC80 of hIL-23, read-out: IC50 (pSTAT3).
Where [5] appears, read: Table 3-2, EC80 of hIL-23, read-out: hIL-23 (pSTAT3) antagonist IC50.

Read-outs that look alike come from different tables or passages of the source. *1 amine or outer side, *2 acyl side, *3 side chain or, on linkers, in order; H or OH if unused. Where a SMILES comes first, the peptide text is derived from it. Bridges are numbered along the chain shown (N, C = ends). [ ]: non-standard residue; d: D form. The star is where a group is joined. 2Nal = N[C@@H](Cc1ccc2ccccc2c1)C(=O)O; AEF = NCCOc1ccc(C[C@H](N)C(=O)O)cc1; X1 = O=C(Cc1ccc(CN[*:1])cc1)[*:2]; 3Pal = N[C@@H](Cc1cccnc1)C(=O)O; αMeL = CC(C)C[C@](C)(N)C(=O)O; CH2COCH2 = O=C(C[*:1])C[*:2]; Pyrrolidide = C1CCN(*)C1; Dab = NCC[C@H](N)C(=O)O

For orientation: IC50 means the concentration at which inhibition is half-maximal. As to `CC(C)C[C@]1(C)NC(=O)[C@H](Cc2ccc3ccccc3c2)NC(=O)[C@H](Cc2ccc(OCCN)cc2)NC(=O)[C@@H]2CCNC(=O)CC[C@H](NC(=O)[C@H](CO)NC(=O)Cc3ccc(cc3)CNC(=O)CC[C@@H](C(=O)N[C@@H](CCN)C(=O)N[C@@](C)(Cc3cccnc3)C(N)=O)NC1=O)C(=O)N[C@@H](Cc1c[nH]c3ccccc13)C(=O)N[C@@H](CCC(N)=O)C(=O)N2` [Compound 3, [4-Aminomethyl-phenylacetyl](1c)*SE(2c)WQ[Dab](2c)[Y(2-aminoethoxy)][2-Nal][2-Me-Leu]E(1c)[Dab][2-Me-3-(3-Pyridyl)-Ala]-[NH2]], the Emax in data set [1] turned out to be 99%. Also, the concentration for half-maximal inhibition (IC50) in data set [2] (setting [4]) and in data set [2] (setting [5]) was 1.7 nM throughout. The “hIL-23 (pSTAT3) antagonist % inhibition” value in data set [2] worked out at 98%. The amount remaining at 4 h, 10 µM in data set [3] was 104%.
Regarding `CC(C)C[C@]1(C)NC(=O)[C@H](Cc2ccc3ccccc3c2)NC(=O)[C@H](Cc2ccc(OCCN)cc2)NC(=O)[C@@H]2CCNC(=O)CC[C@H](NC(=O)[C@H](CO)NC(=O)Cc3ccc(cc3)CNC(=O)CC[C@@H](C(=O)N[C@@H](CCN)C(=O)N(C)[C@@H](Cc3cccnc3)C(N)=O)NC1=O)C(=O)N[C@@H](Cc1c[nH]c3ccccc13)C(=O)N[C@@H](CCC(N)=O)C(=O)N2` [Compound 4, [4-Aminomethyl-phenylacetyl](1c)*SE(2c)WQ[Dab](2c)[Y(2-aminoethoxy)][2-Nal][2-Me-Leu]E(1c)[Dab][N—Me-3-(3-Pyridyl)-Ala]-[NH2]], the figures for the concentration for half-maximal inhibition (IC50) in data set [1], in data set [2] (setting [4]) and in data set [2] (setting [5]) were 0.17 nM, 6.5 nM and 6.5 nM, respectively. Besides, the Emax in data set [1] is 111%. The “hIL-23 (pSTAT3) antagonist % inhibition” value in data set [2] was 100%. Further, the share remaining at 4 h, 10 µM in data set [3] is 103%.
`CC(C)C[C@]1(C)NC(=O)[C@H](Cc2ccc3ccccc3c2)NC(=O)[C@H](Cc2ccc(OCCN)cc2)NC(=O)[C@@H]2CCNC(=O)CC[C@H](NC(=O)[C@H](CO)NC(=O)Cc3ccc(cc3)CNC(=O)CC[C@@H](C(=O)N[C@@H](CCN)C(=O)N[C@@H](Cc3c[nH]cn3)C(=O)N[C@@H](Cc3cccnc3)C(N)=O)NC1=O)C(=O)N[C@@H](Cc1c[nH]c3ccccc13)C(=O)N[C@@H](CCC(N)=O)C(=O)N2` [Compound 12, [4-Aminomethyl-phenylacetyl](1c)*SE(2c)WQ[Dab](2c)[Y(2-aminoethoxy)][2-Nal][2-Me-Leu]E(1c)[Dab]H[3-(3-Pyridyl)-Ala]-[NH2]] ([X1]SEWQ[Dab][AEF][2Nal][αMeL]E[Dab]H[3Pal]-NH2; lactam 3-6, N-10): the Emax in data set [1] came to 104%. For the same molecule, the IC50 in data set [2] (setting [5]) amounted to 3.5 nM. Moreover, the “hIL-23 (pSTAT3) antagonist % inhibition” value in data set [2] turned out to be 100%. Also, in data set [3] (1 h), the fraction remaining at 1 h, 10 µM is 94%.
With `CNC(=O)[C@H](Cc1cccnc1)NC(=O)[C@H](Cc1c[nH]cn1)NC(=O)[C@@H]1CCC(=O)NCc2ccc(cc2)CC(=O)N[C@@H](CO)C(=O)N[C@H]2CCC(=O)NCC[C@H](NC(=O)[C@H](CCC(N)=O)NC(=O)[C@H](Cc3c[nH]c4ccccc34)NC2=O)C(=O)N[C@@H](Cc2ccc(OCCN)cc2)C(=O)N[C@@H](Cc2ccc3ccccc3c2)C(=O)N[C@@](C)(CC(C)C)C(=O)N1` [Compound 34, [4-Aminomethyl-phenylacetyl](1c)*SE(2c)WQ[Dab](2c)[Y(2-aminoethoxy)][2-Nal][2-Me-Leu]E(1c)H[3-(3-Pyridyl)-Ala]-[NHMe]] ([X1]SEWQ[Dab][AEF][2Nal][αMeL]EH[3Pal]-NHMe; lactam 3-6, N-10), the Emax in data set [1] is 90%. For the same molecule, the “hIL-23 (pSTAT3) antagonist % inhibition” value in data set [2] worked out at 102%. Also, in data set [3], the share remaining at 4 h, 10 µM is 95%.
For the molecule `CNC(=O)[C@H](Cc1cccnc1)NC(=O)[C@H](COC)NC(=O)[C@@H]1CCC(=O)NCc2ccc(cc2)CC(=O)N[C@@H](CO)C(=O)N[C@H]2CCC(=O)NCC[C@H](NC(=O)[C@H](CCC(N)=O)NC(=O)[C@H](Cc3c[nH]c4ccccc34)NC2=O)C(=O)N[C@@H](Cc2ccc(OCCN)cc2)C(=O)N[C@@H](Cc2ccc3ccccc3c2)C(=O)N[C@@](C)(CC(C)C)C(=O)N1` [Compound 37, [4-Aminomethyl-phenylacetyl](1c)*SE(2c)WQ[Dab](2c)[Y(2-aminoethoxy)][2-Nal][2-Me-Leu]E(1c)[Ser(OMe)][3-(3-Pyridyl)-Ala]-[NHMe]], the Emax in data set [1] was 95%. In addition, in data set [2] (setting [5]), the IC50 is 0.069 nM. The “hIL-23 (pSTAT3) antagonist % inhibition” value in data set [2] turned out to be 100%. In addition, the share remaining at 4 h, 10 µM in data set [3] is 102%.
In the case of `CNC(=O)[C@H](Cc1cccnc1)NC(=O)[C@H](CCN)NC(=O)[C@@H]1CCC(=O)NCc2ccc(cc2)CC(=O)N[C@@H](C)C(=O)N[C@H]2CCC(=O)NCC[C@H](NC(=O)[C@H](CCC(N)=O)NC(=O)[C@H](Cc3c[nH]c4ccccc34)NC2=O)C(=O)N[C@@H](CCc2ccccc2)C(=O)N[C@@H](Cc2ccc3ccccc3c2)C(=O)NC(C)(C)C(=O)N1` [Compound 41, [4-Aminomethyl-phenylacetyl](1c)*AE(2c)WQ[Dab](2c)[hPhe][2-Nal][Aib]E(1c)[Dab][3-(3-Pyridyl)-Ala]-[NHMe]], the Emax in data set [1] amounted to 104%. Also, in data set [3], the share remaining at 4 h, 10 µM is 102%.
Regarding `CC(C)C[C@]1(C)NC(=O)[C@H](Cc2ccc3ccccc3c2)NC(=O)[C@H](Cc2ccc(OCCN)cc2)NC(=O)[C@@H]2CCNC(=O)CC[C@H](NC(=O)[C@H](CO)NC(=O)Cc3ccc(cc3)CNC(=O)CC[C@@H](C(=O)N[C@@H](CCN)C(N)=O)NC1=O)C(=O)N[C@@H](Cc1c[nH]c3ccccc13)C(=O)N[C@@H](CCC(=O)N1CCCC1)C(=O)N2` [Ref 146, [4-Aminomethyl-phenylacetyl](1c)*SE(2c)W[Q(pyrrolidin)][Dab](2c)[Y(2-aminoethoxy)][2-Nal][2-Me-Leu]E(1c)[Dab]-[NH2], reference compound] ([X1]SEWE(Pyrrolidide)[Dab][AEF][2Nal][αMeL]E[Dab]-NH2; lactam 3-6, N-10), the figures for the IC50 in data set [1] and in data set [2] (setting [5]) were 1.2 nM and 42 nM, respectively. Moreover, the Emax in data set [1] came to 105%. Besides, the “hIL-23 (pSTAT3) antagonist % inhibition” value in data set [2] was found to be 98%.
As for `CC(=O)N[C@H]1CCCCNC(=O)CC[C@@H](C(=O)N[C@@H](CCN)C(=O)N[C@@H](Cc2cccnc2)C(N)=O)NC(=O)[C@](C)(CC(C)C)NC(=O)[C@H](Cc2ccc3ccccc3c2)NC(=O)[C@H](Cc2ccc(OCCN)cc2)NC(=O)[C@@H]2CSCC(=O)CSC[C@H](NC(=O)[C@H]([C@@H](C)O)NC1=O)C(=O)N[C@@H](Cc1c[nH]c3ccccc13)C(=O)N[C@@H](CCC(N)=O)C(=O)N2` [Ref 155, [Ac]-K(1c)TC(2a)WQC(2a)[Y(2-aminoethoxy)][2-Nal][2-Me-Leu]E(1c)[Dab][3-(3-Pyridyl)-Ala]-[NH2], reference compound] (Ac-KTCWQC[AEF][2Nal][αMeL]E[Dab][3Pal]-NH2; lactam 1-10; linker 3-6 via CH2COCH2), the Emax in data set [1] stood at 97%. For the same molecule, the “hIL-23 (pSTAT3) antagonist % inhibition” value in data set [2] was found to be 100%.
